# Measured values as given in paper PMC4542547 (Scientific Reports, 2015).
# “And” between values parts separate entries of the source, which are not always exact repeats. Identical values can stand only once. Like-named read-outs stand apart in the source and are kept apart here. Positions of bridges follow the written chain, without caps; N, C: chain ends. Residues, ends and D or L forms follow the SMILES beside them.
# Assays:
# human α9α10 nAChRs = molecular target: T1, human α9α10 nAChRs (Homo sapiens, UniProt Q9GZZ6+Q9UGM1); assay: cell-based; type: cell-based
# T1 construct: expressed in transfected cells; host or cells: Xenopus laevis oocytes (cRNA injection)
# rat α9α10 nAChRs = conditions: cited from earlier work
# [1] = tested on: rat N-type (Cav2.2) calcium channels; conditions: read-out: IC50 rN-type (Cav2.2); cited from earlier work
# [2] = tested on: recombinant human Cav2.3 calcium channels; conditions: read-out: IC50 hCav2.3; cited from earlier work
# [3] = tested on: rat N-type (Cav2.2) calcium channels; type: cell-based; conditions: read-out: IC50 rN-type (Cav2.2)
# [4] = tested on: recombinant human Cav2.3 calcium channels; type: cell-based; conditions: read-out: IC50 hCav2.3
# in vitro = conditions: male, human, serum
# T1 sequence (Q9UGM1 26-479 limits assumed): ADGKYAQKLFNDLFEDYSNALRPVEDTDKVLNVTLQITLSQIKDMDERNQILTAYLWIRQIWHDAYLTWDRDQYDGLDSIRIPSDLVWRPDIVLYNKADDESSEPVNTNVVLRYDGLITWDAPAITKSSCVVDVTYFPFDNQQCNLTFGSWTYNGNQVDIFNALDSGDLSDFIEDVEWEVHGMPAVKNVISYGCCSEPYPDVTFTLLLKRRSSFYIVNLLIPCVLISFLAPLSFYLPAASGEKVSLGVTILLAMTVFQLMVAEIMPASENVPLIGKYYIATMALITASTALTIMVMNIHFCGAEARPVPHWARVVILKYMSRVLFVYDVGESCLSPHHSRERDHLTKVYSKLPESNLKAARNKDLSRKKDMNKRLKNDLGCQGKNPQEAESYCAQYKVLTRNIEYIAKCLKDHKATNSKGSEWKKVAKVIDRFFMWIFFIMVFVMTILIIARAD
# T1 sequence (Q9GZZ6 25-450): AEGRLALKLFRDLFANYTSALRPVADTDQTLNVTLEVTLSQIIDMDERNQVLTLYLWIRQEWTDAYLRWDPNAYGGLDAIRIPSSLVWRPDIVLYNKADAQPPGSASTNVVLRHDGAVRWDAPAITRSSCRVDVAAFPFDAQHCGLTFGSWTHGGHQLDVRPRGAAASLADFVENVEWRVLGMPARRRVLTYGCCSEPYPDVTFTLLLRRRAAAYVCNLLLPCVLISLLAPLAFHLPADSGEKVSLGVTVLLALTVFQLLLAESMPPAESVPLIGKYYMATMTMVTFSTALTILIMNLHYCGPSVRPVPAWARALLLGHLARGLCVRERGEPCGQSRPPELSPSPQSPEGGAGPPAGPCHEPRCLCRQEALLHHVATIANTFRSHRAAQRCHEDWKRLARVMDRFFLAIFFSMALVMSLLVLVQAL
smiles,measurement,setting,value
"CC[C@H](C)[C@@H]1NC(=O)[C@H](CCC(=O)O)NC(=O)[C@@H]2CCCN2C(=O)[C@H](Cc2cnc[nH]2)NC(=O)[C@H](CC(=O)O)NC(=O)[C@H](Cc2ccc(O)cc2)NC(=O)[C@H](CC(N)=O)NC(=O)[C@@H]2CSSC[C@H](NC(=O)CN)C(=O)N[C@@H](CSSC[C@@H](C(N)=O)NC1=O)C(=O)N[C@@H](CO)C(=O)N[C@@H](CC(=O)O)C(=O)N1CCC[C@H]1C(=O)N[C@@H](CCCNC(=N)N)C(=O)N2 [Vc1.1, reference compound]",IC50,human α9α10 nAChRs,320000 pM
CC[C@H](C)[C@@H]1NC(=O)[C@H](CCC(=O)O)NC(=O)[C@@H]2CCCN2C(=O)[C@H](Cc2c[nH]cn2)NC(=O)[C@H](CC(=O)O)NC(=O)[C@H](Cc2ccc(O)cc2)NC(=O)[C@H](CC(N)=O)NC(=O)[C@@H]2CSSC[C@@H]3NC(=O)CNC(=O)CNC(=O)CNC(=O)[C@H](C)NC(=O)[C@H](C)NC(=O)CNC(=O)CNC(=O)[C@H](CSSC[C@H](NC3=O)C(=O)N[C@@H](CO)C(=O)N[C@@H](CC(=O)O)C(=O)N3CCC[C@H]3C(=O)N[C@@H](CCCNC(=N)N)C(=O)N2)NC1=O [cVc1.1],IC50,rat α9α10 nAChRs,765000 pM
same,IC50,[1],300 pM
same,IC50,[2],290 pM
CC[C@H](C)[C@@H]1NC(=O)[C@H](CCC(=O)O)NC(=O)[C@@H]2CCCN2C(=O)[C@H](Cc2c[nH]cn2)NC(=O)[C@H](CC(=O)O)NC(=O)[C@H](Cc2ccc(O)cc2)NC(=O)[C@H](CC(N)=O)NC(=O)[C@H](Cc2ccccc2)NC(=O)[C@H](CCCNC(=N)N)NC(=O)[C@@H]2CCCN2C(=O)[C@H](CC(=O)O)NC(=O)[C@H](CO)NC(=O)[C@@H]2CSSC[C@H](NC1=O)C(=O)NCC(=O)NCC(=O)N[C@@H](C)C(=O)N[C@@H](C)C(=O)NCC(=O)NCC(=O)NCC(=O)N[C@@H](Cc1c[nH]cn1)C(=O)N2 [hcVc1.1] (cyclo(AAGGGHCSDPRFNYDHPEICGG); disulfide 7-20),lower potency than cVc1.1 at human recombinant α9α10 nAChR currents,human α9α10 nAChRs,two-fold
same,IC50,[3],~900 pM and 857 pM
same,IC50,[4],~900 pM and 961 pM
CC[C@H](C)[C@@H]1NC(=O)[C@H](CCC(=O)O)NC(=O)[C@@H]2CCCN2C(=O)[C@H](Cc2cnc[nH]2)NC(=O)[C@H](CC(=O)O)NC(=O)[C@H](Cc2ccc(O)cc2)NC(=O)[C@H](CC(N)=O)NC(=O)[C@H](Cc2ccccc2)NC(=O)[C@H](CCCNC(=N)N)NC(=O)[C@@H]2CCCN2C(=O)[C@H](CC(=O)O)NC(=O)[C@H](CO)NC(=O)[C@@H]2CSSC[C@H](NC1=O)C(=O)NCC(=O)NCC(=O)N[C@@H](C)C(=O)N[C@@H](C)C(=O)NCC(=O)NCC(=O)NCC(=O)N[C@@H](Cc1cnc[nH]1)C(=O)N2 [hcVc1.1] (cyclo(AAGGGHCSDPRFNYDHPEICGG); disulfide 7-20),remaining at 24 h,in vitro,~90%
